Patent publication US6162823A, “LTA4 hydrolase inhibitors” (G.D. Searle & Co., priority 1997, dated 2000)
pIC50: −log10 of the molar value. Structures can show the parent of a compound that is named as a salt. Where two headings read alike, the source gives them in different places.

Key:
[1] = target: T1, recombinant human LTA4 hydrolase (rhLTAH) (Homo sapiens, UniProt P09960); test: Recombinant Human LTA Hydrolase Assay for LTA Hydrolase Inhibitor Activity; assay type: biochemical; details: 10 min preincubation with 250 ng enzyme, LTA4 substrate, room temperature, pH 7.4
T1 construct: made in house; host or cells: Spodoptera frugiperda Sf-9 cells (baculovirus)
T1 sequence (P09960 1-611): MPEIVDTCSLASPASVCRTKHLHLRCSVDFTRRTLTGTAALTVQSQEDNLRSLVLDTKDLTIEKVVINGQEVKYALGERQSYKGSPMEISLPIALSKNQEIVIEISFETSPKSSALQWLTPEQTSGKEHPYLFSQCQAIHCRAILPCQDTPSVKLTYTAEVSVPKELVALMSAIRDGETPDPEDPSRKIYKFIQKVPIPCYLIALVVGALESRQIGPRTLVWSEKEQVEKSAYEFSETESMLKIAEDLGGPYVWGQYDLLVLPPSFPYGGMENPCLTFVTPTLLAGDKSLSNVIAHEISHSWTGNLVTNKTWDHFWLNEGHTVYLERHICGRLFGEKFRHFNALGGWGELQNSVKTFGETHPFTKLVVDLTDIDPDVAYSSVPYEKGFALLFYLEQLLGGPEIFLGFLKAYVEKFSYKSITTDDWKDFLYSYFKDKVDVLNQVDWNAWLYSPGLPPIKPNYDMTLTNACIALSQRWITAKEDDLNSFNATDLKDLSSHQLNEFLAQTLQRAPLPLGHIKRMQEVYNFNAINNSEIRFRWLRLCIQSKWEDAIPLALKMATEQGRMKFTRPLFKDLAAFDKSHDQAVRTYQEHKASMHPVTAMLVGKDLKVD
Experimental: Compounds of the present invention were tested for LTA hydrolase inhibitor activity against recombinant human LTA hydrolase (rhLTAH).
One or more predetermined amounts of a compound of the invention were incubated in assay buffer (0.1 M potassium phosphate, 5 mg/ml fatty acid free BSA, 10% DMSO, pH 7.4) for 10 minutes at room temperature with 250 ng of recombinant hLTA4 H to allow binding, if any, between the enzyme and inhibitor. […] LTA4 (free acid) was thawed and diluted in assay buffer (minus DMSO) to a concentration of 350 ng/ml and 25 μl (8ng) of LTA4 substrate was added to the reaction mixture (total volume of reaction mixture=200 μl at time zero. Each reaction was carried out at room temperature for 10 minutes. The reaction was stopped by diluting 25 μl of the reaction mixture with 500 μl of the assay buffer without DMSO. LTA4 was quantified in the diluted sample by a commercially available enzyme-linked immunoassay [Caymen Chemical Col. Ann Arbor, Mich.] using the method recommended in the manufacturer's instructions and compared to the amount of LTA4 produced in a negative control (i.e., essentially identical conditions except without addition of an inhibitor compound). The IC50 was routinely calculated from the data produced.

[2] = system: calcium ionophore-induced LTB4 production in human blood; test: Inhibition of calcium ionophore-induced LTB4 production in human blood (HWB); assay type: cell-based; details: read-out: Inhibition of Calcium Ionophore-induced LTB4 Production in Human Blood (HWB) IC50
Experimental: LTB4 and Thromboxane Production by Calcium Ionophore Stimulated Human Blood for LTB4 Hydrolase Inhibitor Activity
Human blood, collected in heparin-containing Vacutainer tubes, was diluted 1:4 with RPMI-1640 media and 200 μl of the diluted blood was added into each of a 96-well microtiter plate. […] After incubating for 15 minutes at 37° C. in a humidified incubator, calcium ionophore A13187 (Sigma Chemical Co., St. Louis, Mo.) was added to a final concentration of 20 mcg/ml and the incubation continued under the same conditions for an additional 10 minutes to allow LTB4 formation. The reaction was terminated by centrifugation (833 g, 10 minutes at 4° C.) and supernatant were analyzed for LTB4 and thromboxane by commercially available enzyme-linked immunoassays (Caymen Chemical Co., Ann Arbor, Mich.) according to the manufacturer's instructions. The IC50 of each test compound was determined from the amount of inhibition of LTB4 production as compared to an essentially identical assay in which no inhibitor compound was present.

[3] = system: LTB4 production by calcium ionophore stimulated mouse blood; test: Murine ex vivo LTB4 inhibition (calcium ionophore stimulated mouse blood after oral dosing); assay type: in vivo; details: for inhibition at 10 mg/kg: read-out: Murine Ex Vivo LTB4 Inhibition, % I LTB4 at 1 hour after administration
Experimental: The compounds were administered by oral garage to adult male outbred mice weighing approximately 20-30 gm at a dose of 10 mg/kg body weight. […] The mixture was incubated for 10 minutes at 37° C. in a humidified incubator. The reaction was terminated by centrifugation (833 g. 10 minutes at 4° C.). Supernatant were analyzed for LTB4 and thromboxane by commercially available enzyme-linked immunoassays [Caymen Chemical Co., Ann Arbor, Mich.] in accordance with the manufacturer's instructions. The percent inhibition was determined by comparison to animals treated identically except that the solution administered by oral gavage was devoid of inhibitor compound.

[4] = system: LTA4 hydrolase; details: cited from earlier work
[5] = human whole blood diluted 1:4, 15 min preincubation at 37° C., ionophore 20 mcg/ml, 10 min
[6] = mouse, oral gavage, 10 mg/kg (* indicates 50 mg/kg), 1 hour after administration, ionophore A23187 20 mcg/ml

| Compound | pIC50 [1] | pIC50 [2, 5] | inhibition at 10 mg/kg [3, 6] [%] | pIC50 ([2]; Homo sapiens) | inhibition at 10 mg/kg ([3]; Mus musculus, po, 1 h) [%] | Murine Ex Vivo LTB4 Inhibition, % I LTB4 at 1 hour after administration [3, 6] [%] | LTA4 hydrolase inhibitory activity [4] |
| --- | --- | --- | --- | --- | --- | --- | --- |
| CN(CCCOc1ccc(Cc2cccs2)cc1)CCC(=O)NS(=O)(=O)c1ccccc1 [Example 9] | > 9.30 | 7.10 | 87 |  |  |  |  |
| CN(CCCOc1ccc(Cc2cccs2)cc1)CCC(=O)NS(C)(=O)=O [Example 10, N-(Methylsulfonyl)-3-[methyl[3-[4-[(2-thienyl)-methyl]phenoxy]propyl]amino]propanamide] | 9.30 | 7.21 | 93 |  |  |  |  |
| CCN(CCCOc1ccc(Cc2cccs2)cc1)CCC(=O)NS(C)(=O)=O [Example 11, 3-[Ethyl[3-[4-[(2-thienyl)methyl]phenoxy]propyl]-amino]-N-(methylsulfonyl)propanamide monohydrochloride] | 7.48 | 7.18 | 86 |  |  |  |  |
| CC(C)N(CCCOc1ccc(Cc2cccs2)cc1)CCC(=O)NS(C)(=O)=O [Example 12, 3-[(1-methylethyl)[3-[4-[(2-thienyl)methyl-]phenoxy]propyl]-amino]-N-(methylsulfonyl)-propanamide monohydrochloride] | 7.92 | 7.10 | 68 |  |  |  |  |
| CC(C)N(CCCOc1ccc(Cc2cccs2)cc1)CCC(=O)NS(=O)(=O)c1ccccc1 [Example 13, 3-[(1-methylethyl)[3-[4-[(2-thienyl)methyl-]phenoxy]propyl]amino]-N-(phenylsulfonyl)-propanamide, monohydrochloride] | 8.64 | 7.40 |  |  |  |  |  |
| CCN(CCCOc1ccc(Cc2ccsc2)cc1)CCC(=O)NS(=O)(=O)c1ccccc1 [Example 14, monohydrate] | 7.96 | 7.09 | 87 |  |  |  |  |
| CCN(CCCOc1ccc(Cc2ccsc2)cc1)CCC(=O)NS(C)(=O)=O [Example 15, 3-[Ethyl[3-[4-[(3-thienyl)methyl]phenoxy]propyl]-amino]-N-(methylsulfonyl)propanamide monohydrochloride] |  | 6.64 | 79 |  |  |  |  |
| CC(C)N(CCCOc1ccc(Cc2ccsc2)cc1)CCC(=O)NS(C)(=O)=O [Example 16] | 6.35 | 6.70 | 85 |  |  |  |  |
| CN(CCCOc1ccc(Cc2ccsc2)cc1)CCC(=O)NS(=O)(=O)c1ccccc1 [Example 17, monohydrochloride] | 9.30 | 6.89 | 93 |  |  |  |  |
| CN(CCCOc1ccc(Cc2ccsc2)cc1)CCC(=O)NS(C)(=O)=O [Example 18, N-(methylsulfonyl)-3-[methyl[3-[4-[(3-thienyl)methyl]phenoxy]propyl]-amino]propanamide] | 7.70 | 6.72 | 94 |  |  |  |  |
| CC(C)N(CCCOc1ccc(Cc2ccsc2)cc1)CCC(=O)NS(=O)(=O)c1ccccc1 [Example 21] | 7.05 | 6.82 | 60 |  |  |  |  |
| CN(CCCOc1ccc(Cc2ccccc2)cc1)CCC(=O)NS(=O)(=O)c1ccccc1 [Example 22] | 9.00 |  |  | 7.12 | 94 |  |  |
| CN(CCCOc1ccc(Cc2ccccc2)cc1)CCC(=O)NS(C)(=O)=O [Example 23] | 8.89 | 7.15 | 100 |  |  |  |  |
| CS(=O)(=O)NC(=O)CCN(CCCOc1ccc(Cc2ccccc2)cc1)C1CC1 [Example 24] | 5.67 | 5.57 |  |  |  |  |  |
| CC(C)(C)N(CCCOc1ccc(Cc2ccccc2)cc1)CCC(=O)NS(C)(=O)=O [Example 25] | 7.00 | 6.96 | 45 |  |  |  |  |
| CC(C)N(CCCOc1ccc(Cc2ccccc2)cc1)CCC(=O)NS(C)(=O)=O [Example 26] | 6.80 | 6.66 | 81 |  |  |  |  |
| CC(C)N(CCCOc1ccc(Cc2ccccc2)cc1)CCC(=O)NS(C)(=O)=O [Example 27] | 7.33 | 7.00 |  |  |  | 44 |  |
| CCN(CCCOc1ccc(Cc2ccccc2)cc1)CCC(=O)NS(C)(=O)=O [Example 28] | 6.27 | 6.74 | 89 |  |  |  |  |
| CCN(CCCOc1ccc(Cc2ccccc2)cc1)CCC(=O)NS(=O)(=O)c1ccccc1 [Example 29] | 7.10 | 6.89 | 65 |  |  |  |  |
| CC(C)C[C@H](NC(=O)[C@@H](O)[C@H](N)Cc1ccccc1)C(=O)O [bestatin] |  |  |  |  |  |  | exhibit LTA4 hydrolase inhibitory activity |
| C[C@H](CS)C(=O)N1CCC[C@H]1C(=O)O [captopril] |  |  |  |  |  |  | exhibit LTA4 hydrolase inhibitory activity |
| N-(methylsulfonyl)-3-[propyl[3-[4-[(3-thienyl)methyl]phenoxy]propyl]-amino]propanamide [Example 20] | 6.82 | 6.82 |  |  |  | 56 |  |
| N-(phenylsulfonyl)-3-[propyl[3-[4-[(3-thienyl)methyl]phenoxy]propyl]-amino]propanamide monohydrochloride [Example 19] | 7.05 | 7.12 |  |  |  | 45 |  |
